Measurements published in patent US20030082135A1, “Pathway of RANTES-mediated chemokine synthesis in astrocytes and methods of use therefor” (priority 2001, published 2003).

Tests used:
[1] = test system: cultured mouse astrocytes; assay: RT-PCR for KC message in astrocytes; type: cell-based
[2] = test system: astrocytes; assay: ELISA of KC, TNF-α and MCP-1 protein in astrocyte culture supernatants; type: cell-based, mouse; details: 48 h, 1.5 to 100 ng/ml tested
[3] = test system: PKA; assay: PKA activity assay on lysates of treated astrocytes; type: cell-based, mouse
Method: PKA activity assay. PKA activity was determined using a commercially available kit (Calbiochem, San Diego, Calif.) according to manufacturer's recommendations. Primary mouse astrocytes were grown in 6-well plates and then stimulated as described and lysed in 100 μl buffer (same buffer used for Western blotting) for 30 min. Five μl of the lysates were incubated with 20 μl PKA reaction mixture at 30° C. for 30 min. The reaction was terminated by adding 10 μl stop solution and ^32P radioactivity was counted.

[4] = test system: murine KC promoter; assay: KC promoter luciferase reporter in transfected astrocytes; type: cell-based, mouse; details: 100 ng/ml RANTES, 24 h
Excerpt: Plasmids, transient transfection, and luciferase activity assay. The KC reporter plasmid was constructed by using a luciferase reporter gene pGL-3 basic vector (Promega, Madison, Wis.) driven by mouse KC promoter (−2878/+43). Wild-type p90RSK expression (WT pKH3) and dominant negative p90RSK expression (ΔΔ RSK pKH3) plasmids were obtained from Dr. John Blenis, Harvard Medical School. Astrocytes were transiently transfected with Lipofectamine 2000 reagent (Life Technologies, Gaithersburg, Md.) according to the manufacturer's protocol. After 24 h, the cells were stimulated with RANTES in absence or presence of the indicated inhibitor, and luciferase activity was determined after an additional 24 h, by the procedure according to the manufacturer (Promega, Madison, Wis.). Relative luciferase activity was normalized for cell lysate protein concentration as determined by BCA protein assay kit (Pierce, Rockford, Ill.). The Relative Fold Induction is the relative intensity of the experimental sample divided by the relative intensity of the medium control.
To establish whether RANTES up-regulation of chemokine production is mediated by activation of promoter elements, primary astrocyte cultures were transiently transfected with a murine KC promoter-luciferase construct, and reporter activity was monitored after RANTES treatment.

[5] = test system: ICAM-1 and CX3CR1 on astrocytes; assay: Flow cytometric analysis of astrocyte receptor proteins; type: cell-based, mouse
Method: Flow cytometric analyses. PBS with 0.1% sodium azide was used for all washes and antibody (Ab) dilutions. Cells were pre-incubated 15 min with 0.5 μg Fc Block (BD-PharMingen) then 40 min at 4° C. with 1 μg of the appropriate Ab or matched isotype control immunoglobulin. Fluorescence-labelled cells were analyzed on a Coulter Profile II flow cytometer (Coulter, Hialeah, Fla.).
Another marker of activated astrocytes in MS and EAE lesions is the increased expression of the adhesion receptor, ICAM-1 (Lee, et al., 1999. J Immunol 165:4658-4666). Control astrocyte cultures were stained with anti-ICAM-1, and RANTES treatment further increased the levels of ICAM-1 protein expression about three-fold (mean intensity 50.2 vs. control of 16.3).
The cell surface receptor CX3CR1 was also selected for analysis since astrocyte expression of this receptor may facilitate interactions with endothelial cells and neurons that carry the membrane-tethered ligand for this receptor (Bacon, et al, 2000. J Neuroimmunol 104:92-97). Anti-CX3CR1 stained about 50% of the control astrocyte population. […] The modulation of receptor proteins peaked at 24 h; similar patterns were noted after a 48 h incubation with RANTES but the intensity levels were intermediate between the 0 and 24 h values.

[6] = test system: mouse thymocytes; assay: RPA for chemokine/cytokine transcripts in thymocytes; type: cell-based; details: 100 ng/ml, 6 h
Method: To evaluate the cellular specificity of chemokine induction by RANTES-related chemokines, mouse thymocytes were treated with 2.5 μg/ml ConA, 100 ng/ml RANTES, or TCA4. After 6 h the cells were harvested for RNA extraction. […] Thus, the ability of RANTES-related chemokines to up-regulate chemokine/cytokine synthesis is not a generalized phenomenon in all cell types, but is specific for CNS cells such as astrocytes.

[7] = test system: astrocytes; assay: ELISA of KC, TNF-α and MCP-1 protein in astrocyte culture supernatants; type: cell-based, mouse
Method: ELISA. For production of supernatants, 2×10^4 astrocytes were cultured in 96 well plates with medium or 100 ng/ml RANTES. Supernatants were collected after the indicated times. ELISA assays for KC and MCP-1 were performed as in Luo, Y., et al. 1999. J Immunol 163:3985, and for TNF-α as in Abromson-Leeman, et al. 2001. Eur J Immunol 31:527. Protein levels were determined using recombinant KC, MCP-1, or TNF-α (R & D Systems, Minneapolis, Minn.) as standards.

[8] = test system: Raf-1; assay: Raf-1 kinase activity in lysates of treated astrocytes (phosphorylation of MEK); type: cell-based, mouse; details: 100 ng/ml RANTES
Method: FIG. 12 is a set of bar graphs and a photograph of a Western blot showing that RANTES activated Raf-1 kinase activity in astrocytes. Panel A. Astrocytes were stimulated with 100 ng/ml RANTES for the indicated times and cell lysates were prepared for analysis of Raf-1 activity. Values are presented as relative Raf-1 kinase activity (percent) and represent the mean±S.E.M. of triplicate experiments. Panel B. Astrocytes were stimulated with 100 ng/ml RANTES for the indicated times and cell lysates were prepared for analysis by Western blotting. Blots were stained with anti phospho-Raf (Ser 259) Ab or control anti-Raf Ab. Panel C. […] Astrocytes were pretreated with the indicated doses of Raf-1 inhibitor for 1 h and then stimulated with 100 ng/ml RANTES for 3 h. Total RNA was prepared and assayed by RPA for expression of message for the indicated proinflammatory mediators and the housekeeping genes L32 and GAPDH. Representative data from one of three similar experiments are presented. […]
It is herein shown that RANTES induced Raf-1 kinase activity in 1 to 5 min; Raf-1 kinase activity peaked after 5-10 min (FIG. 12A). […] Increased Raf-1 enzyme activity was accompanied by dephosphorylation of Ser 259, an inhibitory phosphate site detected by a specific anti-Raf (Ser 259) antibody (FIG. 12B).

stimulation of KC promoter-luciferase reporter activity [4]: about four
time of peak modulation of receptor proteins ([5]; RANTES): 24 h
increase of ICAM-1 protein expression ([5]; RANTES treatment vs control astrocytes): about three
ICAM-1 mean intensity ([5]; RANTES treatment, control 16.3): 50.2
CX3CR1 mean intensity ([5]; RANTES treatment, control of 6.0 as printed): 14.3
Substance: RANTES
synthesis of KC message [1]: induce synthesis of KC message
concentration inducing KC protein [2]: ≥ 10 ng/mL
inhibition of PKA activity ([3]; 100 ng/ml RANTES, 20 min): 60%
time of maximal reduction of PKA kinase activity ([3]; after RANTES stimulation): 10 min
cells stained with anti-CX3CR1 ([5]; after RANTES, control about 50%): less than 30%
RANTES and TNF-α RNA levels in thymocytes [6]: not to ber further enhanced
time at which KC protein reached a plateau ([7]; 100 ng/ml RANTES): 1 days
time at which KC protein synthesis was detectable ([7]; 100 ng/ml RANTES): ≤ 8 h
time at which KC protein was detected ([7]; 100 ng/ml RANTES): 12 h
KC protein concentration in supernatant ([7]; 100 ng/ml RANTES, after 16 h): 20 to 30 ng/mL
TNF-α protein level in supernatant ([7]; 100 ng/ml RANTES, after 16 h): less than 120 pg/ml
TNF-α protein in culture supernatants ([7]; 6 h after RANTES stimulation): not detectable
TNF-α protein in culture supernatants ([7]; 12 h after RANTES stimulation): greater than 100 pg/ml
time of peak TNF-α protein levels ([7]; RANTES stimulation): 24 h
time of peak Raf-1 kinase activity [8]: 5 to 10 min
